Laboratory results taken from patent US10087166B2, “Cyclic amine azaheterocyclic carboxamides” (Merck Patent GmbH, priority 2010, dated 2018).
pIC50: −log10 of the molar value.

Molecular target: T1, P70S6K (Homo sapiens, UniProt P23443, T412E)
T1 construct: purchased Millipore
Assay: P70S6K enzyme assay
Type: biochemical
Conditions: P70S6K T412E mutant 3 nM, 24 μM ATP, FITC-AHA-AKRRRLSSLRA-OH substrate, 90 min at 25° C.; read-out: IC50p70S6K
How it was run: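 T412E mutant enzyme (3 nM) with 24 μM ATP and 1 μM FITC-labelled S6-derived peptide in Hepes pH 7.5, MgCl2, DTT, Brij; 90 min at 25° C, EDTA stop. Phosphorylated product and substrate separated by microfluidic mobility shift; IC50 determined.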

T1 sequence (P23443 whole entry T412E): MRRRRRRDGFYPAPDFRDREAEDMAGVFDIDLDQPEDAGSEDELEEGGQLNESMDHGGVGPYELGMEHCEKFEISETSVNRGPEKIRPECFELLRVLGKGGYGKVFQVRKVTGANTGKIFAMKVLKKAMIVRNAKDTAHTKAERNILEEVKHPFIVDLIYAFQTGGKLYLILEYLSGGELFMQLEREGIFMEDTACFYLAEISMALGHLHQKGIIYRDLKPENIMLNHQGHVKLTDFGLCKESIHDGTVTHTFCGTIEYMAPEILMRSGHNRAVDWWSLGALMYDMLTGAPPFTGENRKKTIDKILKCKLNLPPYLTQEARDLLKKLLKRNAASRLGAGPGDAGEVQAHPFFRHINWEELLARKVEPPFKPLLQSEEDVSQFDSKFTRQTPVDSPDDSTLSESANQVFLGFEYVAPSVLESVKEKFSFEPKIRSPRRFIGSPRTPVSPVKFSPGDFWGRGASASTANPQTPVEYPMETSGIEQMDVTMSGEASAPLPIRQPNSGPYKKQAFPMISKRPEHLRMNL

Row | pIC50 | SMILES
1 | 8.96 | NC(=O)c1cccc2c(N[C@@H]3CNC[C@H]3c3ccc(Cl)c(F)c3)ncnc12 [compound 101, 4-(((3S,4R)-4-(4-chloro-3-fluorophenyl)pyrrolidin-3-yl)amino)quinazoline-8-carboxamide]
2 | 8.55 | NC(=O)c1cccc2c(N[C@@H]3CNC[C@H]3c3cc(F)c(F)cc3F)ncnc12 [compound 106, 4-(((3S,4R)-4-(2,4,5-trifluorophenyl)pyrrolidin-3-yl)amino)quinazoline-8-carboxamide]
3 | 6.48 | NC(=O)c1cccc2c(N[C@H]3CNC[C@@H]3c3ccc(Cl)c(F)c3)ncnc12 [compound 112, 4-(((3R,4S)-4-(4-chloro-3-fluorophenyl)pyrrolidin-3-yl)amino)quinazoline-8-carboxamide]
4 | 6.64 | NC(=O)c1cccc2c(N[C@@H]3CNCC[C@H]3c3ccc(C(F)(F)F)cc3)ncnc12 [compound 128]
5 | 8.92 | NC(=O)c1cccc2c(N[C@H]3CNCC[C@@H]3c3ccc(C(F)(F)F)cc3)ncnc12 [compound 129, 4-(((3R,4R)-4-(4-(trifluoromethyl)phenyl)piperidin-3-yl)amino)quinazoline-8-carboxamide]
6 | 8.92 | NC(=O)c1cccc2c(N[C@H]3CNCC[C@@H]3c3cccc(C(F)(F)F)c3)ncnc12 [compound 130, 4-(((3R,4R)-4-(3-(trifluoromethyl)phenyl)piperidin-3-yl)amino)quinazoline-8-carboxamide]
7 | 6.80 | NC(=O)c1cccc2c(N[C@@H]3CNCC[C@H]3c3cccc(C(F)(F)F)c3)ncnc12 [compound 131, 4-(((3S,4S)-4-(3-(trifluoromethyl)phenyl)piperidin-3-yl)amino)quinazoline-8-carboxamide]
